Measured values taken from patent publication US7267670B2, “Reinforced urethral suppository” (priority 2001, dated 2007).

Test system: over active bladder
Settings: oral, 5 mg pills three times per day
Procedure: Their doctor prescribes an anti-cholinergic agent, oxybutynin chloride, taken orally three times per day in 5 mg pills.
Alternatively, their doctor prescribes an oxybutynin urethral suppository of the invention. Before leaving home, they open the individually wrapped suppository, grasping it by the handle; they insert the meltable portion, containing up to 5 mg of oxybutynin chloride, into their urethra. […] If necessary, the person can remove the remaining portions of the suppository and insert a new suppository to prevent uncontrolled voiding episodes.

Compound: CCN(CC)CC#CCOC(=O)C(O)(c1ccccc1)C1CCCCC1 (centres unmarked) [oxybutynin chloride]
- effect on uncontrolled voiding episodes (patient one): eliminates the uncontrolled voiding episodes
- side effects (patient two): severe dry mouth and dizziness
